Results on 4 molecules are retold here after ChEMBL document CHEMBL5465560, “Selectivity Literature for EUbOPEN Chemogenomic Library” (2024).

In test [1] the target is T1, Myosin-IIIb (Homo sapiens) (UniProt Q8WXR4).
T1 sequence (whole entry): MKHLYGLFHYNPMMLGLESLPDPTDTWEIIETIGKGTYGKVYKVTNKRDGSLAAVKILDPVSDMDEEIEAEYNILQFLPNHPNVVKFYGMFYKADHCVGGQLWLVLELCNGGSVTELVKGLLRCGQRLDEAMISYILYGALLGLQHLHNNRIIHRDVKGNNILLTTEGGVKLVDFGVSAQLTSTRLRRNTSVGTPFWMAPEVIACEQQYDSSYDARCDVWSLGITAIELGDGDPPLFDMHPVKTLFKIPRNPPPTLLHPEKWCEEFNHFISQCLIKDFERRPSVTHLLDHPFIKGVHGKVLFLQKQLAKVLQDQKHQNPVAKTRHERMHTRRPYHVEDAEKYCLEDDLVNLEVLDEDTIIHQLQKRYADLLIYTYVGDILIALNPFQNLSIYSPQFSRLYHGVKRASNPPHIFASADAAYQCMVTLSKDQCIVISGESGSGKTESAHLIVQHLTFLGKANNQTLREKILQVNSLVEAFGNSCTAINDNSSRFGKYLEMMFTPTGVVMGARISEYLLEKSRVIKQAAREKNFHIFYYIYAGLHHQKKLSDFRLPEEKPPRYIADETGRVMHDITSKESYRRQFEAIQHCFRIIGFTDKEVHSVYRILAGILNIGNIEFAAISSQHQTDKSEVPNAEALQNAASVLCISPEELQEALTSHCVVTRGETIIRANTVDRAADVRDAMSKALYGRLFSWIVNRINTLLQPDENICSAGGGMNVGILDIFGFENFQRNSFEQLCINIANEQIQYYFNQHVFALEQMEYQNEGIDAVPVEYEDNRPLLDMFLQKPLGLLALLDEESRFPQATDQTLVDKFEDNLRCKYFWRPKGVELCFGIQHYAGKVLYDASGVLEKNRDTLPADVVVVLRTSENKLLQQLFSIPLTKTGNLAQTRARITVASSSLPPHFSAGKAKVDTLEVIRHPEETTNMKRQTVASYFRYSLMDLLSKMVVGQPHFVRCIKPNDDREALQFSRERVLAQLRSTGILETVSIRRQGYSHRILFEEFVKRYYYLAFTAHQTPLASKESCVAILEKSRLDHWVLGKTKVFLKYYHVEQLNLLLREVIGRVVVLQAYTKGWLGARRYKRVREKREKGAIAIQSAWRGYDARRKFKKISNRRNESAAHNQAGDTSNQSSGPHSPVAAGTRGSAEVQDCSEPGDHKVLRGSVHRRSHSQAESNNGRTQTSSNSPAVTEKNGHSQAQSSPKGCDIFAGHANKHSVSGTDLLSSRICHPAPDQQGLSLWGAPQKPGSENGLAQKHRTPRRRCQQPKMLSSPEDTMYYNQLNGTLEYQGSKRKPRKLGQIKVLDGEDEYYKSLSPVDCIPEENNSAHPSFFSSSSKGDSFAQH
As to the kind of experiment: Selectivity interaction (KinomeScan (DiscoverX)) EUB0001079a MYO3B. The note with it: at 1 µM.

In test [2] the target is T2, Serine/threonine-protein kinase tousled-like 1 (Homo sapiens) (UniProt Q9UKI8).
T2 sequence (whole entry): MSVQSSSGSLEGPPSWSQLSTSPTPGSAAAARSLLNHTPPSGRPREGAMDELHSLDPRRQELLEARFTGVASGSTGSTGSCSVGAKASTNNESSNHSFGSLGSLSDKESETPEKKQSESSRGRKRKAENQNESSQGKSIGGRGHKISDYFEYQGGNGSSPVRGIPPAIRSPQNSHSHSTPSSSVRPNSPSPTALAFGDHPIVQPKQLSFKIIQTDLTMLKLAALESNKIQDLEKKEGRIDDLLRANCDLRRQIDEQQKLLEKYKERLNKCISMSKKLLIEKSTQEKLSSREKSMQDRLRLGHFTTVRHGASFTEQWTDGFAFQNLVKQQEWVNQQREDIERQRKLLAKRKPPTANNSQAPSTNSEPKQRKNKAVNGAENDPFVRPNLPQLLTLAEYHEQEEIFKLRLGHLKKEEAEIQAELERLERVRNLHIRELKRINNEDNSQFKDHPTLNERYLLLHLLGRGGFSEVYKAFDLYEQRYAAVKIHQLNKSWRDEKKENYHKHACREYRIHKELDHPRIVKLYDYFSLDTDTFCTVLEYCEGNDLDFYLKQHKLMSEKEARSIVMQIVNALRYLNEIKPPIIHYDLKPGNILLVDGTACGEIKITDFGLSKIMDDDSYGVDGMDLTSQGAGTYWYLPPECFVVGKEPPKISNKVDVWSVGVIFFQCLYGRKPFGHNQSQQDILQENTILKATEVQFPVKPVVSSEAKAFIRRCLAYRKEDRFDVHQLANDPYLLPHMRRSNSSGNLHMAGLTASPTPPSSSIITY
As to the kind of experiment: Selectivity interaction (ActivX KiNativ screen (kinase selectivity in THP-1 cell lysates)) EUB0000639a TLK1. It counts as subcellular. The note with it: lysate, at 0.04 µM.

Test [3] concerns the target Platelet-derived growth factor receptor beta (Homo sapiens, UniProt P09619). Put plainly: Selectivity interaction (KinomeScan (DiscoverX)) EUB0001049a PDGFRB. Conditions: at 1 µM.
For test [4], the system named is Epidermal growth factor receptor (Homo sapiens), P00533 [UNDEFINED MUTATION]. Put plainly: Selectivity interaction (KinomeScan (DiscoverX)) EUB0000618a EGFR. The note with it: at 10 µM.
Sequence of Epidermal growth factor receptor (Homo sapiens), P00533 [UNDEFINED MUTATION] (P00533 whole entry, looked up, change not shown): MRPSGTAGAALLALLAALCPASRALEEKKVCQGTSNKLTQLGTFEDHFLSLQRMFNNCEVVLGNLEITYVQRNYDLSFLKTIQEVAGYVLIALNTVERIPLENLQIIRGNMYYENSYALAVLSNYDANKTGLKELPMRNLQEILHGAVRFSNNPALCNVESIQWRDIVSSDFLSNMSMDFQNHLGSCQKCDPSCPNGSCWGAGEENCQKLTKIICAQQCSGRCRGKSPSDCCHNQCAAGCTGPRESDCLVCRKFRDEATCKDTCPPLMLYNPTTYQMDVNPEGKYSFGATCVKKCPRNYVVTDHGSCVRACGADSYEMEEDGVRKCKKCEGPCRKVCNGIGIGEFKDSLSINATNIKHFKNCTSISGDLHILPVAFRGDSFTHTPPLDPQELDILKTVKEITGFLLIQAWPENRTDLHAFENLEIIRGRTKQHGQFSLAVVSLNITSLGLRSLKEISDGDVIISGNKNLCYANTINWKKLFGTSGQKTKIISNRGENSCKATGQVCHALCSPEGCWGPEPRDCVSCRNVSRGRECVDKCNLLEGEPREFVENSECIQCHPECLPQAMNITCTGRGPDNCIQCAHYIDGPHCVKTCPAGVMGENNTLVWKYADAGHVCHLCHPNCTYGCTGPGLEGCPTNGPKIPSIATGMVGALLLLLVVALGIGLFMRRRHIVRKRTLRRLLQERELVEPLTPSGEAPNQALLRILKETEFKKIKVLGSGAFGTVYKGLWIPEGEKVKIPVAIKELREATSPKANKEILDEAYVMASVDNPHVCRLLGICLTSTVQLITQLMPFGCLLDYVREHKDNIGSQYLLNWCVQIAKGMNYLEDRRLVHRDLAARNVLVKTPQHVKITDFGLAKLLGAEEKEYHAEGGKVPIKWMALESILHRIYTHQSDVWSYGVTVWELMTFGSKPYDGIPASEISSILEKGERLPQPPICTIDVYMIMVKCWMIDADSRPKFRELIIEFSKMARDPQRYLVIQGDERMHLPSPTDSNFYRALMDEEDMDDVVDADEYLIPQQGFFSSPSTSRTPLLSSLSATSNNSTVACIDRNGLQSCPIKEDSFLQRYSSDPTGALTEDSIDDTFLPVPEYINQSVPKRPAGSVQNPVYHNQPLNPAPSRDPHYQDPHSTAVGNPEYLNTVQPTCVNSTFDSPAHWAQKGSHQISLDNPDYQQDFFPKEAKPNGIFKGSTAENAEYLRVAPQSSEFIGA

Sequence of Platelet-derived growth factor receptor beta (P09619 whole entry): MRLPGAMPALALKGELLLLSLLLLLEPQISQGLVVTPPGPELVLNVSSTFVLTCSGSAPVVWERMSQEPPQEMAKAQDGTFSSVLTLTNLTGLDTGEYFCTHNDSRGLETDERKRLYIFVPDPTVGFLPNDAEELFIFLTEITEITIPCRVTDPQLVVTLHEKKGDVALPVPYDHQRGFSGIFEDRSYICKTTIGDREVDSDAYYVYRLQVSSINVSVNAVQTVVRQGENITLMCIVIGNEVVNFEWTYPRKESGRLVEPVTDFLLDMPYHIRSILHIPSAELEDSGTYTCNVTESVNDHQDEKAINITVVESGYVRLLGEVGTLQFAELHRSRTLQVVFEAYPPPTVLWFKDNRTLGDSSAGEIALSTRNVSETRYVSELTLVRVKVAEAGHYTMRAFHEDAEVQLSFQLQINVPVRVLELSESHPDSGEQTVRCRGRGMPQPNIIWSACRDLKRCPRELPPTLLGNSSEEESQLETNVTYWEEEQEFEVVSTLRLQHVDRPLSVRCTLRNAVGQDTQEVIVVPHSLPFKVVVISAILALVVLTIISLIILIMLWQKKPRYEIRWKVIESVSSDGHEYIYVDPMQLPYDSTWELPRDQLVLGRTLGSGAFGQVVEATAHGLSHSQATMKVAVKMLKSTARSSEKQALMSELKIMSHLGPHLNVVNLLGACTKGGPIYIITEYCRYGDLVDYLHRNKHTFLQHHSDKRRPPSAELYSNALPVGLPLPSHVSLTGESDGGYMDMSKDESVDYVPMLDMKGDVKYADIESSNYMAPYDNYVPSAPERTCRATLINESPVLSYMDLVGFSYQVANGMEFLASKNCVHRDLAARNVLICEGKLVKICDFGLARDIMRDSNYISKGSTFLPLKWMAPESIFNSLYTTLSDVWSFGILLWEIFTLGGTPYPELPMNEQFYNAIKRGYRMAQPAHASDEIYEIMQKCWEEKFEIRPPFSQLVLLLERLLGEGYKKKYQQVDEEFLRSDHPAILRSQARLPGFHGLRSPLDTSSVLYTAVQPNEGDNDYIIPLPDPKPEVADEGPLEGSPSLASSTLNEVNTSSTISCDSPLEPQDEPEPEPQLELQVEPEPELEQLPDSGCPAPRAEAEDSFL

As for `Nc1cnc(N2CCc3cc(S(=O)(=O)Nc4c(F)cc(Cl)cc4F)cc(N4CCCC4=O)c32)nc1` [TP-020n], the % of control in test [1] was found to be 100%.

For `CC[C@@H]1[C@H](F)C(=O)N[C@@H]1COc1nccc2cc(C(N)=O)c(OC)cc12` [ZIMLOVISERTIB], the % of inhibition in test [2] was -7.3%.

Molecule `COc1cc(Nc2nc(C)cc(-c3cnn4nc(OC)ccc34)n2)cc(C(F)(F)F)c1` showed a % of control in test [3] of 100%.

`O[C@H]1CC[C@H](Nc2ncc3nc(Nc4c(F)cc(F)cc4F)n([C@H]4CCOC4)c3n2)CC1`: the % of control in test [4] was 9.4%.
